In US11667643B2, “RIP1K inhibitors” (priority 2020, dated 2023):
pIC50: −log10 of the molar value. Where two headings read alike, the source gives them in different places.

Assays:
U937 cells = test: U937 cell necroptosis assay (TNFa + zVAD, CellTiter-Glo recovery), functional human RIP1 assay; format: cell-based
Experimental: (§1) In this example, U937 and L929 cells were exposed to compounds of the present disclosure and a cell necroptosis assay was conducted to evaluate compound activity in functional human RIP1 and murine RIP1 assays.
(§2) U937 and L929 cells were obtained from the American Type Culture Collection (Manassa, Va., USA). Both cells were maintained in logarithmic growth phase in complete RPMI 1640 media (Sigma, ST Louis, Mo., USA) supplemented with 10% fetal bovine serum (Sigma, ST Louis, Mo., USA) at 37° C. with 5% CO2. For necroptosis assay, L929 cells were plated for 18 h in 100 μL/well medium at 10K cells/well in Costar 96-well black clear-bottom plates (Fisher Scientific, Hampton, N.H., USA); U937 cells were plated on the day of the assay in 50 μL/well medium containing 60 uM zVAD-fmk (Lonza, Basel, Switzerland) at 50K cells/well. Medium from L929 cells were removed from the 96-well plates and replaced with 50 μL/well new medium containing 40 uM zVAD-fmk. Each compound of the present disclosure evaluated in this example was serially diluted in DMSO from 2.5 mM in 4-fold dilutions, and then diluted 1:125 in complete medium. 50 μL/well 2× of the compound was then added to the cells in the plates. The cells were pre-incubated with the compound for 1 hour at 37° C. with 5% CO2 and before addition of 10 μL/well 11×TNFa (Peprotech, Rocky Hill, N.J., USA) to give a final concentration of 2 ng/mL for TNFa. The relative amount of necroptosis cells was determined by luminescent using a Wallac Victor2 Luminometer (PerkinElmer, Waltham, Mass., USA) and a CellTiter-Glo® Luminescent Cell Viability Reagent Assay (Promega, Madison, Wis., USA) added per manufacturer instructions after 18 hours of TNFa stimulation at 37° C. with 5% CO2. This example establishes that embodiments of the compounds described herein have unexpectedly potent activity against human RIP1 and murine RIP1, which allows their assessment in in vivo mouse models of disease.

L929 cells = test: L929 cell necroptosis assay (TNFa + zVAD, CellTiter-Glo recovery), functional murine RIP1 assay; format: cell-based
Experimental: as §1, §2

RIPK1 = RIPK1 (Homo sapiens (Human), UniProt Q13546); test: biochemical; format: biochemical; conditions: RIPK1 enzyme 31 ng/well, 30° C. for 30 minutes, luminescence; read-out: RIPK1 ADP-Glo Kinase (IC50)
Experimental: In this example, compounds of the disclosure were evaluated using a biochemical assay using the ADP-Glo™ technology.
ADP-Glo™ (Promega, Madison, Wis., USA) reagents were thawed at ambient temperature. Kinase Detection Reagent was prepared by mixing kinase detection buffer with the lyophilized kinase detection substrate.
A […] stock volume of 5× Reaction Kinase Buffer was made by mixing 1000 μl of 1M MgCl2, 500 μl of 1M Tris-HCL pH7.4, 0.5 mg/ml (25 mg) of BSA, and 3475 μl of distilled H2O. A 3 ml 2× working stock volume of Reaction Kinase Buffer was made containing a final concentration of 100 μM DTT and 4 mM MnCl2.
Components of RIPK1 enzyme (Rigel Pharmaceuticals, South San Francisco, Calif., USA) were thawed on ice. Diluted RIPK1 was prepared in 1× Kinase Reaction Buffer (diluted from 2× buffer) to 31 ng/well.
1.0 ul of diluted compound was added to a 384 well plate in duplicate. […] The final reaction volume was 5.0 μl. The plate was quickly centrifuged and the reaction was incubated at 30° C. for 30 minutes. Adding 5 μl of ADP-Glo™ terminated the reaction. The plate was quickly centrifuged and the reaction was incubated at room temperature for 40 minutes. Kinase Detection Reagent was then added and incubated at room temperature for 30 minutes. The relative light unit (RLU) of kinase reaction was determined by luminescent (Luminescence 0.1 s) using a Wallac Victor2 Luminometer (PerkinElmer, Waltham, Mass., USA).

[1] = Homo sapiens, U-937, 18 h, read-out: U937 Zvad TNF CTG Recovery, U937, TNFa + zVAD (IC50), U937 cells, zVAD-fmk, TNFa 2 ng/mL, 18 hours, CellTiter-Glo
[2] = Mus musculus, L929, 18 h, read-out: L929-CTG-recovery, L929, TNFa + zVAD (IC50), L929 cells, zVAD-fmk, TNFa 2 ng/mL, 18 hours, CellTiter-Glo
[3] = read-out: U937 Zvad TNF CTG Recovery, U937, TNFa + zVAD (IC50), U937 cells, zVAD-fmk, TNFa 2 ng/mL, 18 hours, CellTiter-Glo
[4] = read-out: L929-CTG-recovery, L929, TNFa + zVAD (IC50), L929 cells, zVAD-fmk, TNFa 2 ng/mL, 18 hours, CellTiter-Glo

Chain of RIPK1 (Q13546 whole entry, species assumed): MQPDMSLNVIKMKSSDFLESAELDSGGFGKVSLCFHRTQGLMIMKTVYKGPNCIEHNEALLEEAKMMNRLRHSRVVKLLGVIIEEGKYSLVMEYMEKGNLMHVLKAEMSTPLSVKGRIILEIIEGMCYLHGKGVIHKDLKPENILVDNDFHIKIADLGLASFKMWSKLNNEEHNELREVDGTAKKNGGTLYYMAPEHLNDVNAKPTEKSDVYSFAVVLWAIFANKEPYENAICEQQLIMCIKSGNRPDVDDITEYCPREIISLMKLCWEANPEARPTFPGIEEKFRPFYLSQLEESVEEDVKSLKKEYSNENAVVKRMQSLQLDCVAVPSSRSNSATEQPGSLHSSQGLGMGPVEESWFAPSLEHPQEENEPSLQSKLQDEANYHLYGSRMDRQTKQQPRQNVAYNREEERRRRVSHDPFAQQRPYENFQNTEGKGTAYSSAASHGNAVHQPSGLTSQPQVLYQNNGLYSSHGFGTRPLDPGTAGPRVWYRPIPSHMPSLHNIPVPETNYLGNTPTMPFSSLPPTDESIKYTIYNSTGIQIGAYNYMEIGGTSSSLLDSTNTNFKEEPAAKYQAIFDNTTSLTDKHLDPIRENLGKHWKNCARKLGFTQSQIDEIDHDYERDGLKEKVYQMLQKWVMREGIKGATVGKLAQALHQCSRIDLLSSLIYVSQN

Structure (SMILES) | pIC50 (U937 cells; [1]) | pIC50 (L929 cells; [2]) | pIC50 (RIPK1) | pIC50 (U937 cells; [3]) | pIC50 (L929 cells; [4])
O=C(NC1CCc2ccccc2-n2ccnc21)c1n[nH]c(Cc2ccccc2)n1 (racemic) [Compound I-1, (±)-5-Benzyl-N-(5,6-dihydro-4H-benzo[f]imidazo[1,2-a]azepin-4-yl)-1H-1,2,4-triazole-3-carboxamide] | 6.43 | 2.00 |  |  | 
O=C(NC1CCc2ccccc2-n2ccnc21)c1nccc(-c2ccccc2)n1 (racemic) [Compound I-2, (±)-N-(5,6-Dihydro-4H-benzo[f]imidazo[1,2-a]azepin-4-yl)-4-phenylpyrimidine-2-carboxamide] | 4.40 | 2.00 | 5.21 |  | 
O=C(NC1CCc2ccccc2-n2ccnc21)c1ncnn1Cc1c(Cl)cccc1Cl (racemic) [Compound I-6, (±)-1-(2,6-Dichlorobenzyl)-N-(5,6-dihydro-4H-benzo[f]imidazo[1,2-a]azepin-4-yl)-1H-1,2,4-triazole-5-carboxamide] | 3.05 | 2.00 |  |  | 
O=C(NC1CCc2ccccc2-n2ccnc21)c1ncn(Cc2c(Cl)cccc2Cl)n1 (racemic) [Compound I-7, (±)-1-(2,6-dichlorobenzyl)-N-(5,6-dihydro-4H-benzo[f]imidazo[1,2-a]azepin-4-yl)-1H-1,2,4-triazole-3-carboxamide] | 7.86 | 4.90 |  |  | 
O=C(NC1CCc2ccccc2-n2ccnc21)c1cc(Cc2ccccc2)on1 (racemic) [Compound I-9, (±)-5-Benzyl-N-(5,6-dihydro-4H-benzo[f]imidazo[1,2-a]azepin-4-yl)isoxazole-3-carboxamide] | 6.65 | 2.00 | 7.58 |  | 
O=C(NC1CCc2ccccc2-n2ccnc21)c1ncn(Cc2ccccc2F)n1 (racemic) [Compound I-14, (±)-N-(5,6-Dihydro-4H-benzo[f]imidazo[1,2-a]azepin-4-yl)-1-(2-fluorobenzyl)-1H-1,2,4-triazole-3-carboxamide] | 8.18 | 5.63 | 7.78 |  | 
O=C(NC1CCc2ccccc2-n2ccnc21)c1n[nH]c(Cc2c(Cl)cccc2Cl)n1 (racemic) [Compound I-19, (±)-5-(2,6-Dichlorobenzyl)-N-(5,6-dihydro-4H-benzo[f]imidazo[1,2-a]azepin-4-yl)-1H-1,2,4-triazole-3-carboxamide] | 6.02 | 2.00 | 6.41 |  | 
O=C(NC1COc2ccccc2-n2cccc21)c1ncn(Cc2c(Cl)cccc2Cl)n1 (racemic) [Compound I-27, (±)-1-(2,6-Dichlorobenzyl)-N-(6,7-dihydrobenzo[b]pyrrolo[1,2-d][1,4]oxazepin-7-yl)-1H-1,2,4-triazole-3-carboxamide] | 7.47 | 5.26 | 7.16 |  | 
Cc1cnc2n1-c1ccccc1CCC2NC(=O)c1n[nH]c(Cc2ccccc2)n1 (racemic) [Compound I-40, (±)-5-Benzyl-N-(1-methyl-5,6-dihydro-4H-benzo[f]imidazo[1,2-a]azepin-4-yl)-1H-1,2,4-triazole-3-carboxamide] | 2.00 | 2.00 |  |  | 
CC(C)(O)C#Cc1ccc2c(c1)-n1ccnc1C(NC(=O)c1n[nH]c(Cc3ccccc3)n1)CC2 (racemic) [Compound I-55, (±)-5-Benzyl-N-(9-(3-hydroxy-3-methylbut-1-yn-1-yl)-5,6-dihydro-4H-benzo[f]imidazo[1,2-a]azepin-4-yl)-1H-1,2,4-triazole-3-carboxamide] | 7.69 | 5.02 |  |  | 
O=C(NC1CCc2ccccc2-n2c1nc(Cl)c2Cl)c1cc(Cc2ccccc2)on1 (racemic) [Compound I-70, (±)-5-Benzyl-N-(1,2-dichloro-5,6-dihydro-4H-benzo[f]imidazo[1,2-a]azepin-4-yl)isoxazole-3-carboxamide] | 4.13 | 2.00 |  |  | 
CC(C)(O)C#Cc1ccc2c(c1)-n1ccnc1C(NC(=O)c1n[nH]c(Cc3ccccc3)n1)CO2 (racemic) [Compound I-90, (±)-5-Benzyl-N-(9-(3-hydroxy-3-methylbut-1-yn-1-yl)-4,5-dihydrobenzo[b]imidazo[1,2-d][1,4]oxazepin-4-yl)-1H-1,2,4-triazole-3-carboxamide] | 6.77 | 2.00 |  |  | 
O=C(NC1CCc2ccccc2-n2ccnc21)c1n[nH]c(Cc2ccccc2)n1 (single isomer, unassigned) [Compound I-4] |  |  |  | 6.69 | 2.00
O=C(NC1CCc2ccccc2-n2ccnc21)c1n[nH]c(Cc2ccccc2)n1 (single isomer, unassigned) [Compound I-5] |  | 2.00 |  | 4.06 | 
O=C(NC1CCc2ccccc2-n2ccnc21)c1ncn(Cc2c(Cl)cccc2Cl)n1 (single isomer, unassigned) [Compound I-12] |  |  |  | 4.77 | 2.00
O=C(NC1CCc2ccccc2-n2ccnc21)c1ncn(Cc2c(Cl)cccc2Cl)n1 (single isomer, unassigned) [Compound I-13] |  |  |  | 8.52 | 5.47
CC(C)(O)C#Cc1ccc2c(c1)-n1ccnc1C(NC(=O)c1n[nH]c(Cc3ccccc3)n1)CO2 (single isomer, unassigned) [Compound I-92] | 7.17 | 5.22 |  |  | 
O=C(N[C@H]1COc2ccccc2-n2nnnc21)c1ncnn1Cc1c(Cl)cccc1Cl [Compound I-10, (R)-1-(2,6-Dichlorobenzyl)-N-(4,5-dihydrobenzo[6]tetrazolo[1,5-d][1,4]oxazepin-4-yl)-1H-1,2,4-triazole-5-carboxamide] | 2.30 | 2.00 |  |  | 
Cc1cccc(C)c1Cn1cnc(C(=O)N[C@H]2COc3ccccc3-n3nnnc32)n1 [Compound I-20, (R)—N-(4,5-Dihydrobenzo[&]tetrazolo[1,5-d][1,4]oxazepin-4-yl)-1-(2,6-dimethylbenzyl)-1H-1,2,4-triazole-3-carboxamide] | 5.81 |  | 5.73 |  | 
CC(C)(O)C#Cc1ccc2c(c1)-n1nnnc1[C@@H](NC(=O)c1cc(O)n(Cc3ccccc3)n1)CO2 [Compound I-76, (R)-1-Benzyl-5-hydroxy-N-(9-(3-hydroxy-3-methylbut-1-yn-1-yl)-4,5-dihydrobenzo[b]tetrazolo[1,5-d][1,4]oxazepin-4-yl)-1H-pyrazole-3-carboxamide] | 2.00 | 2.00 |  |  | 
CN1C(=O)[C@@H](N2CCc3c(nn(Cc4ccccc4)c3Cl)C2=O)COc2cc(C#CC(C)(C)O)ccc21 [Compound I-78] | 8.66 | 8.21 |  |  | 
CC(C)(O)C#Cc1ccc2c(c1)-n1ccnc1[C@@H](NC(=O)c1n[nH]c(Cc3ccccc3)n1)CC2 [Compound I-82, (S)-5-Benzyl-N-(9-(3-hydroxy-3-methylbut-1-yn-1-yl)-5,6-dihydro-4H-benzo[f]imidazo[1,2-a]azepin-4-yl)-1H-1,2,4-triazole-3-carboxamide] | 8.08 | 5.28 |  |  | 
CC(C)(O)C#Cc1ccc2c(c1)-n1ccnc1[C@H](NC(=O)c1n[nH]c(Cc3ccccc3)n1)CO2 [Compound I-91, (S)-5-Benzyl-N-(9-(3-hydroxy-3-methylbut-1-yn-1-yl)-4,5-dihydrobenzo[b]imidazo[1,2-d][1,4]oxazepin-4-yl)-1H-1,2,4-triazole-3-carboxamide] | 2.00 | 2.00 |  |  | 
